Read-outs that look alike come from different tables or passages of the source.
What was measured:
[1] = molecular target: T1, recombinant human NF-kappaB-inducing kinase (NIK/MAP3K14) (Homo sapiens, UniProt Q99558); assay: Biological Assay A: inhibition of recombinant human NF-kappaB-inducing kinase (NIK/MAP3K14) activity (MBP phosphorylation, Mesoscale); conditions: MSD MBP; averaged over all measurements on all batches; read-out: Assay A Biochemical (MSD MBP) IC50
Procedure: Pharmacological Part Biological Assay A Inhibition of Recombinant Human NF-kappaB-Inducing Kinase (NIK/MAP3K14) Activity
Assay buffer was 50 mM Tris pH 7.5 containing 1 mM EGTA (ethylene glycol tetraacetic acid), 1 mM DTT (dithiothreitol), 0.1 mM Na3VO4, 5 mM MgCl2, 0.01% Tween® 20. Assays were carried out in 384 well Mesoscale high binding plates which had been coated with myelin basic protein (MBP) and blocked with bovine serum albumin to prevent non-specific protein binding. All compounds tested were dissolved in dimethyl sulfoxide (DMSO) and further dilutions were made in assay buffer. Final DMSO concentration was 1% (v/v) in assays. Incubations consisted of compound (1% DMSO in control and blank wells), 25 μM […] (ATP), and 10 nM NIK/MAP3K14 substituting enzyme with buffer in the blank wells. Incubations were carried out for 1 h at 25° C. and were followed by washing and sequential incubation with rabbit anti-phospho-MBP and anti-rabbit Ig Sulfotag antibody before reading bound Sulfotag on a Mesoscale Discovery. Signal obtained in the wells containing blank samples was subtracted from all other wells and […] were determined by fitting a sigmoidal curve to % inhibition of control versus Log10 compound concentration.
(§1) Data for the compounds of the invention in the above assays are provided in Table A (the values in Table are averaged values over all measurements on all batches of a compound; values as IC50 (nM)). (‘n.c.’ means not calculated: ‘Co.’ means compound)

[2] = molecular target: T1, recombinant human NF-kappaB-inducing kinase (NIK/MAP3K14); assay: Biological Assay B: inhibition of auto-phosphorylation of recombinant human NIK/MAP3K14 (AlphaScreen), performed at 2 locations; format: biochemical; conditions: AlphaScreen auto-phosphorylation, averaged values
In short: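 Run at two separate sites: 1 h, 25° C. reactions containing 0.2 nM GST-NIK, 25 microM ATP and compound (1% DMSO) in Tris pH 7.5/MgCl2 buffer. Phosphorylation detected via anti-phospho-IKK Ser176/180 antibody with AlphaScreen beads; IC50 fitted to % inhibition.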

[3] = test system: P-IKKα levels in L363 (NIK translocated multiple myeloma) cells; assay: Biological Assay C: effect of compounds on P-IKKα levels in L363 (NIK translocated multiple myeloma) cells, performed at 2 locations; format: cell-based, human; conditions: L363 cells, P-IKKα levels, averaged values
Procedure: Effect of Compounds on P-IKKα Levels in L363 (NIK Translocated Multiple Myeloma) Cells
All compounds tested were dissolved in DMSO and further dilutions were made in culture medium. Final DMSO concentration was 1% (v/v) in cell assays. The human L363 cells (ATCC) were cultured in RPMI 1640 medium supplemented with GlutaMax and 10% fetal calf serum (PAA). Cells were routinely maintained at densities of 0.2×10^6 cells per ml-1×10^6 cells per ml at 37° C. in a humidified 5% CO2 atmosphere. Cells were passaged twice a week splitting back to obtain the low density. Cells were seeded in 96 well plates (Nunc 167008) at 2×10^6 per ml media in a volume of 75 μl per well plus 25 μl […] recombinant human B-cell activating factor (BAFF/BLyS/TNFSF13B). Seeded cells were incubated at 37° C. in a humidified 5% CO2 atmosphere for 24 hr. Drugs and/or solvents were added (20 μl) to a final volume of 120 μl. Following 2 hr treatment plates were removed from the incubator and cell lysis was achieved by the addition of 30 μl 5× lysis buffer followed by shaking on a plate shaker at 4° C. for 10 min. At the end of this incubation lysed cells were centrifuged at 800×g for 20 min at 4° C. and the lysate was assessed for P-IKKα levels by sandwich immuno-assay carried out in anti-rabbit antibody coated Mesoscale plates. Within an experiment, the results for each treatment were the mean of 2 replicate wells. For initial screening purposes, compounds were tested using an 8 point dilution curve (serial 1:3 dilutions). For each experiment, controls (containing MG132 and BAFF but no test drug) and a blank incubation (containing MG132 and BAFF and 1 μM ADS125117, a test concentration known to give full inhibition) were run in parallel. The blank incubation value was subtracted from all control and sample values. To determine the IC50 a sigmoidal curve was fitted to the plot of % inhibition of control P-IKKα levels versus Log10 compound concentration.
Assay C was performed at 2 different locations.
as §1

[4] = location 2, read-out: Assay B location 2 IC50
[5] = Homo sapiens, L-363, location 2, read-out: Assay C location 2 IC50
[6] = location 1, read-out: Assay B location 1 IC50
[7] = Homo sapiens, L-363, location 1, read-out: Assay C location 1 IC50

T1 sequence (Q99558 whole entry): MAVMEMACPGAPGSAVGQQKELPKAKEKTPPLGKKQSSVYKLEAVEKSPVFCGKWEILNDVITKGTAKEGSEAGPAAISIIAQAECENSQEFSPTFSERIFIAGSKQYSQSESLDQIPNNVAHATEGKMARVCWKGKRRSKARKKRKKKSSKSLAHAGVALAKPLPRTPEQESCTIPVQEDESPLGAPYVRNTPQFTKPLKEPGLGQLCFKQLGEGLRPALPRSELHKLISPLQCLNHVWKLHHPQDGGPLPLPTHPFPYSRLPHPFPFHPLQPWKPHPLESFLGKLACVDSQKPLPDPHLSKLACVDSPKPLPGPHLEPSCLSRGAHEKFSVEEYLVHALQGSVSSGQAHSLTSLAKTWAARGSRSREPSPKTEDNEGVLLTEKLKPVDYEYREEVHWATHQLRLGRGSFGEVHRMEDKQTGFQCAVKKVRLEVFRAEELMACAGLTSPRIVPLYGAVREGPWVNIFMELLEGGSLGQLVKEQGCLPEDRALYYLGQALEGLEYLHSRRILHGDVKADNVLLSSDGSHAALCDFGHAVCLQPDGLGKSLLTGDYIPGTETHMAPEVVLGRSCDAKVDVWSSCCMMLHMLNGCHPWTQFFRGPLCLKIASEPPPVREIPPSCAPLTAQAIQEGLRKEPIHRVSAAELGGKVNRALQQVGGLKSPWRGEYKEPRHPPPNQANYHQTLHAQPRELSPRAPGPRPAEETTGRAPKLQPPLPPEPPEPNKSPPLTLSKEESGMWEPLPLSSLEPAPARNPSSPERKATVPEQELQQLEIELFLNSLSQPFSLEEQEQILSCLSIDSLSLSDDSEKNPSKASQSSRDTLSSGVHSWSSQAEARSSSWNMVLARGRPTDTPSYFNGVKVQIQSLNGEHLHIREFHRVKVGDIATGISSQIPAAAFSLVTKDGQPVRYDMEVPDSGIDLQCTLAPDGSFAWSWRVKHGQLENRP

IC50 [1] | IC50 [2, 4] | IC50 [3, 5] | IC50 [2, 6] | IC50 [3, 7] | IC50 ([3]; location 2, read-out: Assay C location 2 IC50) | Compound
0.0148 µM | 0.0026 µM | 0.589 µM |  |  |  | Cc1cc(C(=O)N2CCN(C)CC2)ccc1Nc1nccc(-c2cnc3c(c2)C(C)(C)CN3)n1 [Compound 81]
0.0214 µM | 0.0135 µM | 1.15 µM | 0.0178 µM |  |  | Cc1cc(C(=O)NC2CCOCC2)ccc1Nc1nccc(-c2cnc3c(c2)C(C)(CO)CN3)n1 (stereo not drawn) [Compound 87]
0.012 µM | 0.0026 µM | 0.129 µM |  |  |  | COc1cc(C(=O)NC2CCOCC2)ccc1Nc1nccc(-c2cnc3c(c2)C(C)(CO)CN3)n1 (stereo not drawn) [Compound 1]
0.0102 µM | 0.0055 µM | 0.309 µM |  |  |  | Cc1cc(C(=O)N2CCC(O)CC2)ccc1Nc1nccc(-c2cnc3c(c2)C(C)(CO)CN3)n1 (stereo not drawn) [Compound 109]
0.0055 µM | 0.0012 µM | 0.407 µM |  |  |  | COc1cc(C(=O)NC2CCN(C)CC2)ccc1Nc1nccc(-c2cnc3c(c2)C(C)(C)CN3)n1 [Compound 60]
0.0054 µM | 0.0048 µM | 0.049 µM |  |  |  | COc1cc(CNC(C)=O)c(C)c(Nc2nccc(-c3cnc4c(c3)C(C)(CO)CN4)n2)c1 (stereo not drawn) [Compound 84]
0.0089 µM | 0.0034 µM | 0.373 µM |  | 0.263 µM |  | Cc1cc(C(=O)N2CCC(O)CC2)ccc1Nc1nccc(-c2cnc3c(c2)C(C)(C)CN3)n1 [Compound 54]
0.0033 µM | 0.0028 µM | ~0.129 µM |  |  |  | COc1cc(Nc2nccc(-c3cnc4c(c3)C(C)(CO)CN4)n2)cc(OC)c1OC (stereo not drawn) [Compound 46]
0.0148 µM | 0.0051 µM | 0.759 µM |  |  |  | COc1cc(Nc2nccc(-c3cnc4c(c3)C(C)(CO)CN4)n2)c(C)c(C(=O)NC2CN(C)C2)c1 (stereo not drawn) [Compound 90]
0.0151 µM | 0.0112 µM | 0.549 µM |  |  |  | CC(=O)NCc1ccc(Nc2nccc(-c3cnc4c(c3)C(C)(CO)CN4)n2)c(C)c1 (stereo not drawn) [Compound 86]
0.0324 µM | 0.0033 µM | 0.288 µM |  |  |  | Cc1cc(C(=O)NC2CN(C)C2)ccc1Nc1nccc(-c2cnc3c(c2)C(C)(C)CN3)n1 [Compound 55]
0.0055 µM | 0.0014 µM | 0.0437 µM |  |  |  | COc1cc(CNC(C)=O)ccc1Nc1nccc(-c2cnc3c(c2)C(C)(C)CN3)n1 [Compound 62]
0.0045 µM | 0.0009 µM | 0.0708 µM |  |  |  | COc1cc(C(=O)N2CCC(OC)CC2)ccc1Nc1nccc(-c2cnc3c(c2)C(C)(CO)CN3)n1 (stereo not drawn) [Compound 131]
0.0033 µM | 0.0031 µM | 0.513 µM | 0.01 µM |  |  | COc1cc(C(=O)N2CCS(=O)(=O)CC2)ccc1Nc1nccc(-c2cnc3c(c2)C(C)(CO)CN3)n1 (stereo not drawn) [Compound 132]
0.0093 µM | 0.0078 µM | 0.427 µM |  |  |  | Cc1cc(C(=O)N2CCOCC2)ccc1Nc1nccc(-c2cnc3c(c2)C(C)(CO)CN3)n1 (stereo not drawn) [Compound 120]
0.0123 µM |  | 1.23 µM | 0.0316 µM |  |  | Cc1cc(C(=O)NC2CCOCC2)ccc1Nc1nccc(-c2cnc3c(c2)C(C)(CCC#N)CN3)n1 (stereo not drawn) [Compound 125]
0.0246 µM | 0.0027 µM | 0.282 µM |  |  |  | CC1(C)CNc2ncc(-c3ccnc(Nc4ccc(C(=O)NC5CCOCC5)cc4OC(F)F)n3)cc21 [Compound 82]
0.0062 µM | 0.0018 µM | 0.0437 µM |  | 0.549 µM |  | COc1cc(CNC(C)=O)c(C)c(Nc2nccc(-c3cnc4c(c3)C(C)(C)CN4)n2)c1 [Compound 49]
0.0118 µM | 0.0013 µM | 0.0741 µM |  | 0.661 µM |  | COC1CCN(C(=O)c2ccc(Nc3nccc(-c4cnc5c(c4)C(C)(C)CN5)n3)c(C)c2)CC1 [Compound 79]
0.0112 µM | 0.0072 µM |  |  |  | 0.38 µM | COC1CCN(C(=O)c2ccc(Nc3nccc(-c4cnc5c(c4)C(C)(CO)CN5)n3)c(C)c2)CC1 (stereo not drawn) [Compound 121]

IC50 [1] | IC50 [2, 4] | IC50 [3, 5] | IC50 [2, 6] | IC50 [3, 7] | IC50 ([3]; location 2, read-out: Assay C location 2 IC50) | Compound
0.0135 µM |  | ~6.31 µM |  |  |  | CC(=O)NC(C)c1cccc(Nc2nccc(-c3cnc4c(c3)C(C)(C)CN4)n2)c1 (stereo not drawn) [Compound 96]
0.0562 µM |  | 0.126 µM |  |  |  | CC(=O)NCc1ccc(Nc2nccc(-c3cnc4c(c3)C(C)(C)CN4)n2)c(OC(F)(F)F)c1 [Compound 77]
0.02 µM | 0.0025 µM | 0.243 µM |  |  |  | CC(=O)NCc1ccc(Nc2nccc(-c3cnc4c(c3)C(C)(C)CN4)n2)c(C)c1 [Compound 44]
0.0065 µM |  | 0.0537 µM |  |  |  | CC(=O)NCc1ccc(Nc2nccc(-c3cnc4c(c3)C(C)(C)CN4)n2)c(Cl)c1 [Compound 72]
0.309 µM |  | 3.16 µM |  |  |  | COc1cc(C#N)ccc1Nc1nccc(-c2cnc3c(c2)C(C)(C)CN3)n1 [Compound 116]
0.155 µM |  | 3.09 µM |  |  |  | CN1CCC(NC(=O)c2ccc(Nc3nccc(-c4cnc5c(c4)C(C)(C)CN5)n3)c(Cl)c2)CC1 [Compound 103]
0.0135 µM |  | 0.0724 µM |  |  |  | COc1cc(Nc2nccc(-c3cnc4c(c3)C(C)(C)CN4)n2)c(C)c(C(=O)N2CCC(O)CC2)c1 [Compound 107]
0.0159 µM |  | 0.229 µM |  |  |  | COC1CCN(C(=O)c2ccc(Nc3nccc(-c4cnc5c(c4)C(C)(C)CN5)n3)c(OC(F)F)c2)CC1 [Compound 129]
0.0078 µM |  | 2.75 µM |  |  |  | Cc1cc(C(=O)NC2CCOCC2)ccc1Nc1nccc(-c2cnc3c(c2)C(C)(CCO)CN3)n1 (stereo not drawn) [Compound 124]
0.295 µM |  | 5.5 µM |  |  |  | COc1ccc(S(C)(=O)=O)cc1Nc1nccc(-c2cnc3c(c2)C(C)(C)CN3)n1 [Compound 119]
0.0102 µM | 0.0107 µM | 0.661 µM |  |  |  | COc1cc(C(=O)NC2CCN(C)CC2)ccc1Nc1nccc(-c2cnc3c(c2)C(C)(CO)CN3)n1 (stereo not drawn) [Compound 130]
0.0776 µM | 0.0339 µM | 0.912 µM |  |  |  | CC(=O)NCc1cccc(Nc2nccc(-c3cnc4c(c3)C(C)(CO)CN4)n2)c1C (stereo not drawn) [Compound 360]
0.0631 µM | 0.0204 µM | 5.01 µM |  |  |  | Cc1cc(C(=O)NC2CN(C)C2)ccc1Nc1nccc(-c2cnc3c(c2)C(C)(CO)CN3)n1 (stereo not drawn) [Compound 89]
0.0074 µM | 0.0012 µM | 0.0813 µM |  |  |  | COc1cc(C(=O)NC2CCOCC2)ccc1Nc1nccc(-c2cnc3c(c2)C(C)(C)CN3)n1 [Compound 50]
0.0151 µM |  | 0.102 µM |  |  |  | COc1cc(Nc2nccc(-c3cnc4c(c3)C(C)(C)CN4)n2)c(C)c(C(=O)N2CCOCC2)c1 [Compound 108]
0.0302 µM |  | 0.436 µM |  |  |  | COc1cc(Nc2nccc(-c3cnc4c(c3)C(C)(C)CN4)n2)c(C)c(C(=O)NC2CCOCC2)c1 [Compound 105]
0.0457 µM |  | 1.66 µM |  |  |  | CC(=O)NCc1ccc(Nc2nccc(-c3cnc4c(c3)C(C)(C)CN4)n2)c(C(F)(F)F)c1 [Compound 67]
0.0074 µM |  | 0.144 µM |  |  |  | Cc1cc(C(=O)N2CCC(C#N)CC2)ccc1Nc1nccc(-c2cnc3c(c2)C(C)(C)CN3)n1 [Compound 99]
0.0166 µM |  | > 10 µM |  |  |  | Cc1cc(C(=O)N2CCOCC2)ccc1Nc1nccc(-c2cnc3c(c2)C(C)(C)CN3)n1 [Compound 78]

Source: patent US11236084B2, “Substituted azaindoline derivatives as NIK inhibitors” (Janssen Pharmaceutica NV, priority 2017, dated 2022)
